Experiments:
beagle dogs [1] = assay: Four-week repeated dose intravenous toxicity study in beagle dogs with two-week recovery; format: in vivo, dog
Description: The objective of this study was to investigate the toxicity of NOX-100 when administered as a single intravenous injection once daily for four consecutive weeks to beagle dogs and to determine the reversibility of changes which were established as treatment related. In addition, the systemic exposure of the animals to the test substance was determined and evaluated for correlation with dose and time after starting treatment.
NOX-100 was administered intravenously as a daily single dose (20 mL/kg administered over approximately 2.5 minutes) of 100, 300, and 1000 mg/kg for four weeks in Beagle dogs (n=17 dogs per gender−unbalanced randomization across treated groups). Following the termination of treatment, an additional group of dogs in the Control and highest dose group were held for a period of two weeks in order to determine if the potential treatment related changes were reversible.

beagle dogs [2] = assay: 14-day infusion toxicity in beagle dogs; format: in vivo
Description: Based on the findings from the 4-day study, doses of NOX-100 at 100, 500 and 1000 mg/kg/day infused over a period of 8 hours for 14 days were evaluated in beagle dogs. […] Therefore the high dose of 1000 mg/kg/day was reduced to 250 mg/kg/day on Days 8-14. […] The low dose of 100 mg/kg/day over a period of 8 hours was considered a no-effect level.
The no adverse effect level in dogs (the animal that appeared most sensitive to the effects of NOX-100) was 100 mg/kg given as an 8 hour daily infusion for 14 days. In this study, the NOX-100 was administered as an 11.1 mg/kg bolus loading dose and an 8-hour 11.1 mg/kg/hr infusion maintenance dose.

[3] = Preliminary intravenous pharmacokinetics in rats; format: in vivo, rat; details: bolus injection 30 mg/kg i.v.
Description: The pharmacokinetics of intravenously administered NOX-100 was evaluated in mice, rats and dogs. Preliminary pharmacokinetic studies were conducted using a bolus injection of 30 mg/kg. Post injection, the drug was rapidly eliminated in all three species in a bi-exponential manner with a beta-t½ of approximately 6, 30 and 40 minutes in the mouse, rat and dog, respectively. […] The volume of distribution was around 20-30% of body weight and was similar in the three species. This is likely due to the hydrophilic nature of the drug and may reflect the distribution of NOX-100 primarily in the extracellular space.

mice = assay: Blood pressure studies in mice; format: in vivo
Text: The lack of effect on normal blood pressure is advantageous for NOX-100 as a small molecule .NO scavenger.

[4] = Binding of .NO by NOX-100 in the presence of a metal ion; details: in the presence of a metal ion (e.g., iron)
Text: As illustrated in Scheme 1 following, the binding is a two-step process. First, two molecules of NOX-100 combine with Fe^2+ to form a complex, [(NOX)2-Fe], which is held together via the planar coordination of the Fe^2+ by two dithiocarbamates. Next, the [(NOX)2-Fe] complex tightly binds .NO, forming an .NO-containing complex, [(NOX)2-Fe—NO]. See e.g., Yokokawa et al, 1995, Id.; Kang et al, 1997, Id.

rats = assay: 4-day infusion toxicity in rats (2000 mg/kg over 2 hours); format: in vivo, rat
Description: The high dose of 2000 mg/kg of NOX-100 administered over a period of 2 hours was again tested in a group of rats for 4 consecutive days. […] Mitotic figures in basophilic tubules were also noted. These changes were considered treatment related. […] It appeared that female rats had lower plasma concentrations of NOX-100 compared to males.

[5] = Water solubility and isotonicity of Sodium MGD; format: physicochemical
Description: Sodium MGD is a white to slightly yellowish powder with 1.5 molecules of co-crystallized water, and is water soluble up to 35% w/v at approximately 25° C. A 4.5% (w/v) solution of the Sodium MGD in water without any additives affords a near isotonic solution.

Sprague-Dawley rats = assay: 14-day infusion toxicity in Sprague-Dawley rats; format: in vivo
Description: The safety profile of NOX-100 was further evaluated in Sprague-Dawley rats (10/sex/group for the main study and 24/sex/group for the satellite groups for plasma concentration determination). Rats were administered with NOX-100 at 0, 100, 500 or 2000 mg/kg/day by infusion over a period of 8 hours for 14 days.
The dose of 100 mg/kg/day is considered the no-effect-level in rats.

[6] = both, beagle, dog, in vivo, 4 weeks
[7] = 2000 mg/kg over 2 hours, 4 consecutive days
[8] = females, 500 mg/kg/day, 14 days

For CN(C[C@H](O)[C@@H](O)[C@H](O)[C@H](O)CO)C(=S)S [NOX-100, N-methyl-D-glucamine dithiocarbamate], the “clinical observation: salivation” value (beagle dogs [1]; [6]) was “salivation in the 1000 mg/kg group”, the “clinical observation: vomiting” value (beagle dogs [1]; [6]) was “vomiting in the 100 mg/kg or higher dose groups” and the “body weight, food consumption, hematology, EKG, ophthalmology or organ weights” value (beagle dogs [1]; dog, in vivo) was “no changes”. The “gender related difference in systemic exposure” value (beagle dogs [1]; dog, in vivo) was “no gender related difference”, the “incidence of vomiting after dosing, Treated groups versus group not dosed” value (beagle dogs [1]; dog, in vivo) was “higher” and the “microscopic changes due to study substance” value (beagle dogs [1]; dog, in vivo) was “no microscopic changes”. For the same compound, the “reversibility of other changes” value (beagle dogs [1]; dog, in vivo) was “reversed completely or showed a tendency for reversal”, the “site of main toxicological findings” value (beagle dogs [1]; dog, in vivo) was “kidneys and urinary bladder” and the “systemic exposure (blood levels) versus dose” value (beagle dogs [1]; dog, in vivo) was “linear dose dependent increase”. For the same compound, the “urine specific gravity and urine volume” value (beagle dogs [1]; dog, in vivo) was “decrease in specific gravity and increase in urine volume”, the “histopathological examination: pelvic mucosa and urinary bladder” value (beagle dogs [1]; dog, in vivo, 1000 mg/kg) was “Inflammatory cell infiltration in the pelvic mucosa, and erosion of mucosa in the urinary bladder” and the “kidney histopathology of the moribund animal” value (beagle dogs [1]; dog, in vivo, 1000 mg/kg) was “moderate basophilia of the proximal renal tubules, pelvic mucosal epithelial hyperplasia, hyaline droplets in the proximal tubular epithelium and pelvic mucosal epithelium in the kidneys”. For the same compound, the “laboratory determinations of sodium” value (beagle dogs [1]; dog, in vivo, 1000 mg/kg) was “increased”, the “laboratory results on the day of necropsy, moribund animal” value (beagle dogs [1]; dog, in vivo, 1000 mg/kg) was “an increased white cell count with increased segmented neutrophils and an increase in gamma GT, ALP, urea nitrogen, creatinine, glucose, cholesterol, phospholipids, triglyceride, total protein, albumin, inorganic phosphorus and magnesium and a decrease in sodium and chloride” and the moribundity (beagle dogs [1]; dog, in vivo, 1000 mg/kg) was “became moribund six days after starting treatment”. The “necropsy organ weights of the moribund animal” value (beagle dogs [1]; dog, in vivo, 1000 mg/kg) was “increased absolute and relative weight of the liver, kidneys and adrenals with a decrease noted in the thymus weight”, the “other histopathological findings in the moribund animal” value (beagle dogs [1]; dog, in vivo, 1000 mg/kg) was “follicular atrophy of the mesenteric lymph node, acute atrophy of the thymus, glycogen accumulation in the liver, erosion of mucosa in the urinary bladder, and hypertrophy of cortical cells in the fascicular zone of the adrenals” and the “renal papilla of the moribund animal” value (beagle dogs [1]; dog, in vivo, 1000 mg/kg) was “for the most part necrotic”. For the same compound, the “no adverse effect level” value (beagle dogs [1]; dogs, pulse IV injection daily, four weeks) was “less than 100 mg/kg”, the “clinical signs in the moribund animal” value (beagle dogs [1]; male, beagle, dog, in vivo, 1000 mg/kg) was “vomiting occurred on Days 1 to 6, no stools were passed on Days 4 to 6, decreased locomotor activity was noted on Days 5 to 6 and hypothermia and lateral position was noted on Day 6” and the mortality (beagle dogs [2]; 1000 mg/kg/day, 8-hour infusion) was “One male dog in the high dose (1000 mg/kg/day) group died on Day 6”. For the same compound, the dose concentration relationship (beagle dogs [2]; dog, in vivo) was “proportional dose concentration relationship”, the “mean plasma concentration throughout Days 1, 7 and 14” value (beagle dogs [2]; dog, in vivo) was “similar” and the “mean steady state plasma concentrations, males versus females” value (beagle dogs [2]; dog, in vivo) was “no differences”. For the same compound, the “dose level of initial toxicity as multiple of the no adverse effect level” value (beagle dogs [2]; dogs) was 5 times, the “no adverse effect level” value (beagle dogs [2]; dogs, 8 hour daily infusion for 14 days) was 100 mg/kg and the no-effect level (beagle dogs [2]; dogs, over a period of 8 hours, 14 days) was 100 mg/kg/day. For the same compound, the “mean plasma concentration between 4 to 7.75 hours from the start of infusion” value (beagle dogs [2]; each day) was “remained constant”, the “clinical and laboratory findings accompanied by renal lesions” value (beagle dogs [2]; generally at 500 or 1000 mg/kg/day) was “Clinical signs of deterioration, reduction in body weight and food intake together with changes in serum chemistry and creatinine clearance” and the “histopathological examination of the animal that died” value (beagle dogs [2]; male, 1000 mg/kg/day) was “renal lesions consisting of tubular basophilia and dilatation, hyperplasia of the transitional epithelium of the papilla and some vascular hemorrhage or congestion”. The half-life ([3]; in vivo, iv, rat, read-out: beta-t½) was about 30 min, the clearance ([3]; rat, in vivo, iv, rats, read-out: clearance rate) was 0.9 ± 0.06 L/h/kg and the volume of distribution ([3]; rats) was 20-30 % of body weight. For the same compound, the “effect on hypotensive effect of nitroprusside” value (mice; co-administration with sodium nitroprusside (.NO donor)) was “reduced the hypotensive effect of nitroprusside”, the “effect on blood pressure” value (mice; intravenous infusion of NOX-100 alone) was “did not affect blood pressure” and the “binding of .NO” value [4] was “binds .NO very tightly”. The “plasma concentrations in female rats compared to males” value (rats; 2000 mg/kg) was “lower”, the “hemoglobin and hematocrit values” (rats; [7]) was “slight decrease” and the “red blood cell count” value (rats; [7]) was “slight decrease”. The “animals with cortical tubular basophilia of the kidney, occasionally with tubular dilatation” value (rats; 5 males, 2000 mg/kg/day, 2-hour infusion, 4 consecutive days) was 5/5, the “plasma concentrations on Day 4 compared to Day 1” value (rats; HPLC, 1 and 1.75 hours after infusion, 2000 mg/kg) was “slightly higher” and the “mitotic figures in basophilic tubules” value (rats; males, 2000 mg/kg/day, 4 consecutive days) was “noted”. For the same compound, the water solubility ([5]; approximately 25° C.) was “up to 35 % w/v”, the “concentration of solution in water that is near isotonic” value ([5]; in water without any additives) was 4.5 % (w/v) and the “microscopic findings in urinary bladder and duodenum” value (Sprague-Dawley rats; 2000 mg/kg/day, 14 days) was “hyperplasia of the urinary bladder and increased mitotic figures and dilatation of lymphatic vessels in the duodenum”. For the same compound, the “clinical chemistry, urinary output and kidney weight changes” value (Sprague-Dawley rats; 8-hour infusion, 14 days) was “Elevations in blood urea nitrogen and creatinine, increases in urinary output and kidney weights”, the “clinical signs of salivation” value (Sprague-Dawley rats; 8-hour infusion, 14 days) was “noted mostly at 2000 mg/kg/day and occasionally in the lower dose groups” and the “microscopic changes in the kidney” value (Sprague-Dawley rats; 8-hour infusion, 14 days) was “tubular epithelial basophilia, pyelitis at the papillary tip and hyperplasia of the pelvic transitional epithelium”. For the same compound, the treatment related deaths (Sprague-Dawley rats; 100, 500 or 2000 mg/kg/day, 8-hour infusion, 14 days) was “no treatment related deaths”, the dose concentration relationship (Sprague-Dawley rats; 100-2000 mg/kg/day) was “proportional dose concentration relationship” and the “mean plasma concentrations between 4 to 7.75 hours from the start of infusion” value (Sprague-Dawley rats; each day) was “remained constant”. The kidney weights (Sprague-Dawley rats; [8]) was “increased”, the “microscopic changes (kidney)” value (Sprague-Dawley rats; [8]) was “only seen in one rat” and the “mean plasma concentrations between Days 1, 7 and 14” value (Sprague-Dawley rats; rat, in vivo) was “similar”. The “mean steady state plasma concentrations, males versus females” value (Sprague-Dawley rats; rat, in vivo) was “no differences”, the no-effect-level (Sprague-Dawley rats; rats, 8-hour infusion, 14 days) was 100 mg/kg/day and the observable toxicity (Sprague-Dawley rats; rats, doses of up to 2000 mg/kg/day, 14 consecutive days) was “little observable toxicity”.

Reference: US20140350097A1, “TREATMENT OF HYPOTENSION ASSOCIATED WITH HEMODIALYSIS” (priority 2013, published 2014)
